The record followed here is ChEMBL document CHEMBL5053545, “Iterative Structure-Based Optimization of Short Peptides Targeting the Bacterial Sliding Clamp” (J Med Chem, 2021).

*1 amine or outer side, *2 acyl side, *3 side chain or, on linkers, in order; H or OH if unused. Where a SMILES comes first, the peptide text is derived from it. [ ]: non-standard residue; d: D form. The star is where a group is joined. NEtAsp = CCN([C@@H](CC(=O)[*:3])C(=O)[*:2])[*:1]; Acryloyl(3-(3-pyridyl),E) = O=C(/C=C/c1cccnc1)*; Phe(3,4-Cl2) = N[C@@H](Cc1ccc(Cl)c(Cl)c1)C(=O)O; Phe(3,4-F2) = N[C@@H](Cc1ccc(F)c(F)c1)C(=O)O; Acetyl(1-naphthyl) = O=C(Cc1cccc2ccccc12)*; Oic = O=C(O)[C@@H]1C[C@@H]2CCCC[C@@H]2N1; Cinnamoyl(4-F) = O=C(/C=C/c1ccc(F)cc1)*; NMeCha = CN[C@@H](CC1CCCCC1)C(=O)O; Hydrocinnamoyl = O=C(CCc1ccccc1)*; NMeR = CN[C@@H](CCCNC(=N)N)C(=O)O; NMeF = CN[C@@H](Cc1ccccc1)C(=O)O; X3 = CN(C)/C(=N\CC(=O)*)N1CCOCC1; NFurfurylGly = O=C(O)CNCc1ccco1; NMeQ = CN[C@@H](CCC(N)=O)C(=O)O; Cha = N[C@@H](CC1CCCCC1)C(=O)O; NMeD = CN[C@@H](CC(=O)O)C(=O)O; NMeL = CN[C@@H](CC(C)C)C(=O)O; NHPhenethyl = c1ccc(CCN*)cc1; X5 = CN(C)C(=NCC(=O)*)N(C)C; Pip = O=C(O)[C@@H]1CCCCN1; X1 = O=C(/C=C/c1ccccc1)* Bounds are passed on as bounds.

Experiment [1] deals with Escherichia coli. In words: Binding affinity to Escherichia coli sliding clamp assessed as association rate constant by ITC analysis.
Experiment [2] relates to Escherichia coli. In words: Binding affinity to Escherichia coli sliding clamp assessed as dissociation rate constant by ITC analysis.
The test system of experiment [3] is Escherichia coli. Kind of experiment: Binding affinity to Escherichia coli sliding clamp assessed as gibbs free energy change by ITC analysis.
Experiment [4] can be described thus: Binding affinity to Escherichia coli sliding clamp assessed as dissociation constant by ITC analysis.

As for `CC(=O)N(C)[C@@H](CCC(N)=O)C(=O)N[C@@H](CC1CCCCC1)C(=O)N[C@@H](CC(=O)O)C(=O)N[C@@H](CC(C)C)C(=O)N[C@@H](Cc1ccccc1)C(=O)O` (Ac-[NMeQ][Cha]DLF-OH), the values for the K in experiment [1] and in experiment [2] were 2.1 10^4/M/s and 4.6 10^-2/s, respectively. The deltaG in experiment [3] was -7.7 kcal/mol. Moreover, the Kd in experiment [4] is more than 1000 nM.
For `CC(C)C[C@H](NC(=O)[C@@H]1CCCN1C(=O)[C@H](CC(C)C)NC(=O)[C@H](CC(=O)O)NC(=O)[C@H](CC1CCCCC1)NC(=O)[C@H](CCC(N)=O)NC(=O)/C=C/c1ccccc1)C(=O)O` (X1-Q[Cha]DLPL-OH) the same measures were 6 10^4/M/s, 8 10^-3/s, -9.4 kcal/mol and 132 nM.
The corresponding values for `CC(=O)N[C@@H](CCC(N)=O)C(=O)N[C@@H](CC1CCCCC1)C(=O)N[C@@H](CC(=O)O)C(=O)N[C@@H](CC(C)C)C(=O)N1[C@H](C(=O)N[C@@H](CC(C)C)C(=O)O)C[C@@H]2CCCC[C@@H]21` (Ac-Q[Cha]DL[Oic]L-OH) are 7.1 10^4/M/s, 3.9 10^-3/s, -9.9 kcal/mol and 57 nM.
For `CC(=O)N[C@@H](CCC(N)=O)C(=O)N[C@@H](CC1CCCCC1)C(=O)N[C@@H](CC(=O)O)C(=O)N[C@@H](CC(C)C)C(=O)N1CCC[C@H]1C(=O)N[C@@H](Cc1ccccc1)C(=O)O` (Ac-Q[Cha]DLPF-OH) the same measures were 6 10^4/M/s, 5 10^-3/s, -9.7 kcal/mol and 81 nM.
`CC(=O)N[C@@H](CCC(N)=O)C(=O)N[C@@H](CC1CCCCC1)C(=O)N[C@@H](CC(=O)O)C(=O)N[C@@H](CC(C)C)C(=O)N1CCCC[C@H]1C(=O)N[C@@H](CC(C)C)C(=O)O` (Ac-Q[Cha]DL[Pip]L-OH): the K is 4.3 10^4/M/s in experiment [1] and 1 10^-2/s in experiment [2]. For the same compound, in experiment [3], the deltaG was -9 kcal/mol. The Kd in experiment [4] was 243 nM.
The corresponding values for `CCN(C(=O)[C@H](CC1CCCCC1)NC(=O)[C@H](CCC(N)=O)NC(C)=O)[C@@H](CC(=O)O)C(=O)N[C@@H](CC(C)C)C(=O)N[C@@H](Cc1ccccc1)C(=O)O` (Ac-Q[Cha][NEtAsp]LF-OH) are 2.9 10^4/M/s, 1.3 10^-2/s, -8.6 kcal/mol and 523 nM.
The corresponding values for `CC(C)C[C@H](NC(=O)[C@H](CC(=O)O)N(C)C(=O)[C@H](CC1CCCCC1)NC(=O)[C@H](CCC(N)=O)NC(=O)/C=C/c1cccnc1)C(=O)N1[C@H](C(=O)N[C@@H](Cc2ccccc2)C(=O)O)C[C@@H]2CCCC[C@@H]21` ({Acryloyl(3-(3-pyridyl),E)}-Q[Cha][NMeD]L[Oic]F-OH) are 4.7 10^4/M/s, 5.5 10^-3/s, -9.5 kcal/mol and 118 nM.
For `CC(=O)N(C)[C@@H](CCCNC(=N)N)C(=O)N[C@@H](CCC(N)=O)C(=O)N[C@@H](CC1CCCCC1)C(=O)N(C)[C@@H](CC(=O)O)C(=O)N[C@@H](CC(C)C)C(=O)N[C@@H](Cc1ccc(Cl)c(Cl)c1)C(=O)O` (Ac-[NMeR]Q[Cha][NMeD]L[Phe(3,4-Cl2)]-OH) the same measures were 1.1 10^5/M/s, 9.4 10^-3/s, -9.6 kcal/mol and 92 nM.
`CC(=O)N[C@@H](CCC(N)=O)C(=O)N(C)[C@@H](CC1CCCCC1)C(=O)N[C@@H](CC(=O)O)C(=O)N[C@@H](CC(C)C)C(=O)N[C@@H](Cc1ccccc1)C(=O)O` (Ac-Q[NMeCha]DLF-OH): the deltaG in experiment [3] was -6 kcal/mol. Moreover, the Kd in experiment [4] was more than 1000 nM.
As to `CC(=O)N[C@@H](CCC(N)=O)C(=O)N[C@@H](CC1CCCCC1)C(=O)N[C@@H](CC(=O)O)C(=O)N[C@@H](CC(C)C)C(=O)NCCc1ccccc1` (Ac-Q[Cha]DL-NHPhenethyl), the K is 1.9 10^4/M/s in experiment [1] and 1.8 10^-2/s in experiment [2]. Moreover, in experiment [3], the deltaG was -8.2 kcal/mol. Further, in experiment [4], the Kd is 922 nM.
For `CC(C)C[C@H](NC(=O)[C@H](CC(=O)O)NC(=O)[C@H](CC1CCCCC1)NC(=O)[C@H](CCC(N)=O)NC(=O)/C=C/c1ccc(F)cc1)C(=O)N[C@@H](Cc1ccccc1)C(=O)O` ({Cinnamoyl(4-F)}-Q[Cha]DLF-OH) the same measures were 4.6 10^4/M/s, 6.3 10^-3/s, -9.3 kcal/mol and 144 nM.
The corresponding values for `CC(=O)N[C@@H](CCC(N)=O)C(=O)N[C@@H](CC1CCCCC1)C(=O)N[C@@H](CC(=O)O)C(=O)N[C@@H](CC(C)C)C(=O)N(C)[C@@H](Cc1ccccc1)C(=O)O` (Ac-Q[Cha]DL[NMeF]-OH) are 1 10^4/M/s, 5.4 10^-2/s, -7.1 kcal/mol and more than 1000 nM.
Take `CC(C)C[C@H](NC(=O)[C@H](CC(=O)O)NC(=O)[C@H](CC1CCCCC1)NC(=O)[C@H](CCC(N)=O)NC(=O)C/N=C(\N(C)C)N1CCOCC1)C(=O)N[C@@H](Cc1ccccc1)C(=O)O` (X3-Q[Cha]DLF-OH): the figures for the K in experiment [1] and in experiment [2] were 3.4 10^4/M/s and 1 10^-2/s, respectively. Moreover, the deltaG in experiment [3] is -9 kcal/mol. In addition, in experiment [4], the Kd amounted to 276 nM.
Turning to `CC(C)C[C@H](NC(=O)[C@H](CC(=O)O)NC(=O)[C@H](CC1CCCCC1)NC(=O)[C@H](CCC(N)=O)NC(=O)CNCc1ccco1)C(=O)N[C@@H](Cc1ccccc1)C(=O)O` (H-[NFurfurylGly]Q[Cha]DLF-OH), the K is 4.8 10^4/M/s in experiment [1] and 8.6 10^-3/s in experiment [2]. The deltaG in experiment [3] is -9.2 kcal/mol. Moreover, the Kd in experiment [4] was found to be 171 nM.
For `CC(=O)N[C@@H](CCC(N)=O)C(=O)N[C@@H](CC1CCCCC1)C(=O)N(C)[C@@H](CC(=O)O)C(=O)N[C@@H](CC(C)C)C(=O)N[C@@H](Cc1ccc(F)c(F)c1)C(=O)O` (Ac-Q[Cha][NMeD]L[Phe(3,4-F2)]-OH) the same measures were 5.6 10^4/M/s, 8.4 10^-3/s, -9.3 kcal/mol and 148 nM.
The corresponding values for `CC(C)C[C@H](NC(=O)[C@H](CC(=O)O)NC(=O)[C@H](CC1CCCCC1)NC(=O)[C@H](CCC(N)=O)NC(=O)CCc1ccccc1)C(=O)N[C@@H](Cc1ccccc1)C(=O)O` (Hydrocinnamoyl-Q[Cha]DLF-OH) are 5.5 10^4/M/s, 6.7 10^-3/s, -9.1 kcal/mol and 123 nM.
For `CC(C)C[C@H](NC(=O)[C@H](CC(=O)O)NC(=O)[C@H](CC1CCCCC1)NC(=O)[C@H](CCC(N)=O)NC(=O)Cc1cccc2ccccc12)C(=O)N[C@@H](Cc1ccccc1)C(=O)O` ({Acetyl(1-naphthyl)}-Q[Cha]DLF-OH) the same measures were 6.5 10^4/M/s, 5.7 10^-3/s, -9.6 kcal/mol and 89 nM.
As to `CC(=O)N[C@@H](CCC(N)=O)C(=O)N[C@@H](CC1CCCCC1)C(=O)N[C@@H](CC(=O)O)C(=O)N[C@@H](CC(C)C)C(=O)N1[C@H](C(=O)N[C@@H](Cc2ccccc2)C(=O)O)C[C@@H]2CCCC[C@@H]21` (Ac-Q[Cha]DL[Oic]F-OH), the K in experiment [1] was 5.5 10^4/M/s; in experiment [2] it was 7.1 10^-3/s. Besides, the deltaG in experiment [3] was -9.5 kcal/mol. Moreover, the Kd in experiment [4] worked out at 120 nM.
For `CC(C)C[C@H](NC(=O)[C@H](CC(=O)O)N(C)C(=O)[C@H](CC1CCCCC1)NC(=O)[C@H](CCC(N)=O)NC(=O)/C=C/c1ccc(F)cc1)C(=O)N[C@@H](Cc1ccc(F)c(F)c1)C(=O)O` ({Cinnamoyl(4-F)}-Q[Cha][NMeD]L[Phe(3,4-F2)]-OH) the same measures were 5.1 10^4/M/s, 5.7 10^-3/s, -9.6 kcal/mol and 99 nM.
For `CC(=O)N[C@@H](CCC(N)=O)C(=O)N[C@@H](CC1CCCCC1)C(=O)N[C@@H](CC(=O)O)C(=O)N[C@@H](CC(C)C)C(=O)N[C@@H](Cc1ccccc1)C(N)=O` (Ac-Q[Cha]DLF-NH2) the same measures were 3.3 10^4/M/s, 9.1 10^-3/s, -9 kcal/mol and 268 nM.
The corresponding values for `CC(=O)N[C@@H](CCCNC(=N)N)C(=O)N[C@@H](CCC(N)=O)C(=O)N[C@@H](CC1CCCCC1)C(=O)N[C@@H](CC(=O)O)C(=O)N[C@@H](CC(C)C)C(=O)N[C@@H](Cc1ccccc1)C(=O)O` (Ac-RQ[Cha]DLF-OH) are 3.7 10^4/M/s, 1.9 10^-2/s, -8.6 kcal/mol and 498 nM.
As for `CC(=O)N[C@@H](CCC(N)=O)C(=O)N[C@@H](CC1CCCCC1)C(=O)N(C)[C@@H](CC(=O)O)C(=O)N[C@@H](CC(C)C)C(=O)N1CCC[C@H]1C(=O)N[C@@H](CC(C)C)C(=O)O` (Ac-Q[Cha][NMeD]LPL-OH), the K in experiment [1] is 1 10^5/M/s; in experiment [2], 2.3 10^-2/s. Moreover, in experiment [3], the deltaG is -9 kcal/mol. In addition, in experiment [4], the Kd worked out at 263 nM.
For `CC(=O)N[C@@H](CCC(N)=O)C(=O)N[C@@H](CC1CCCCC1)C(=O)N(C)[C@@H](CC(=O)O)C(=O)N[C@@H](CC(C)C)C(=O)N1CCC[C@H]1C(=O)N[C@@H](Cc1ccc(Cl)c(Cl)c1)C(=O)O` (Ac-Q[Cha][NMeD]LP[Phe(3,4-Cl2)]-OH) the same measures were 3.8 10^4/M/s, 7.9 10^-3/s, -9.1 kcal/mol and 231 nM.
Regarding `CC(=O)N[C@@H](CCC(N)=O)C(=O)N[C@@H](CC1CCCCC1)C(=O)N[C@@H](CC(=O)O)C(=O)N(C)[C@@H](CC(C)C)C(=O)N[C@@H](Cc1ccccc1)C(=O)O` (Ac-Q[Cha]D[NMeL]F-OH), in experiment [3], the deltaG is -5.2 kcal/mol. Besides, the Kd in experiment [4] is more than 1000 nM.
Consider `CC(C)C[C@H](NC(=O)[C@H](CC(=O)O)NC(=O)[C@H](CC1CCCCC1)NC(=O)[C@H](CCC(N)=O)NC(=O)CN=C(N(C)C)N(C)C)C(=O)N[C@@H](Cc1ccccc1)C(=O)O` (X5-Q[Cha]DLF-OH), for which the K in experiment [1] is 3.4 10^4/M/s; in experiment [2] it was 1.1 10^-2/s. In experiment [3], the deltaG was -8.7 kcal/mol. For the same compound, the Kd in experiment [4] was 353 nM.
The corresponding values for `CC(=O)N[C@@H](CCC(N)=O)C(=O)N[C@@H](CC1CCCCC1)C(=O)N(C)[C@@H](CC(=O)O)C(=O)N[C@@H](CC(C)C)C(=O)N[C@@H](Cc1ccc(Cl)c(Cl)c1)C(=O)O` (Ac-Q[Cha][NMeD]L[Phe(3,4-Cl2)]-OH) are 2.7 10^5/M/s, 1 10^-2/s, -10.1 kcal/mol and 41 nM.
